# Results as given in PMC8092220, “Insights into the Relationship between Cobamide Synthase and the Cell Membrane” (mBio, 2021).
# Biological target: T1, cobamide (5′ phosphate) synthase (CobS) (Salmonella enterica, UniProt Q05602)
# T1 construct: CobS^WT reconstituted in proteoliposomes
# Experiment: DRaCALA with […]α-RP, CobS proteoliposomes (Kd […] for DHPC-solubilized CobS); also protection in limited trypsin proteolysis
# Type: binding
# T1 sequence (Q05602 whole entry): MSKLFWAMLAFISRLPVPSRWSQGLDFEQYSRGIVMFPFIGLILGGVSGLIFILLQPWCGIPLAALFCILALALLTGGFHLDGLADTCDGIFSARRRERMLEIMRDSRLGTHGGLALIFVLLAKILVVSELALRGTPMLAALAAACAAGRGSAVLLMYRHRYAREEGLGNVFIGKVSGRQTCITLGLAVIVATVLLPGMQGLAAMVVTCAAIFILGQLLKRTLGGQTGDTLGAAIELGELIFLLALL
smiles,measurement,value
"Cc1cc2ncn([C@H]3O[C@H](COP(=O)(O)O)[C@@H](O)[C@H]3O)c2cc1C [α-RP, N1-(5-phospho-alpha-D-ribosyl)-5,6-dimethylbenzimidazole]",Kd,580 nM
